According to ChEMBL document CHEMBL3593219, “Sesquiterpenes with TRAIL-resistance overcoming activity from Xanthium strumarium” (Bioorg Med Chem, 2015):
Active and inactive are the calls of the source. The calls are words filed in the database; no cut-off is given here.

Legend:
[1] = tested on: AGS; assay: Inhibition of TRAIL-resistance in human AGS cells assessed as inhibition of cell viability at 20 uM incubated for 24 hrs in presence of 100 ng/ml TRAIL by FMCA method relative to TRAIL alone; format: functional
[2] = tested on: AGS; assay: Inhibition of TRAIL-resistance in human AGS cells assessed as inhibition of cell viability at 10 uM incubated for 24 hrs in presence of 100 ng/ml TRAIL by FMCA method relative to TRAIL alone; format: functional
[3] = tested on: AGS; assay: Inhibition of TRAIL-resistance in human AGS cells assessed as inhibition of cell viability at 30 uM incubated for 24 hrs in presence of 100 ng/ml TRAIL by FMCA method relative to TRAIL alone; format: functional
[4] = tested on: AGS; assay: Increase in cleaved caspase-9 protein expression in human AGS cells at 4 to 12 uM s by Western blotting method; format: functional, cell-based
[5] = tested on: AGS; assay: Decrease in Bcl2 protein expression in human AGS cells incubated for 24 hrs by Western blotting method; format: functional, cell-based
[6] = tested on: AGS; assay: Increase in cleaved caspase-8 protein expression in human AGS cells at 16 uM incubated for 24 hrs by Western blotting method; format: functional
[7] = tested on: AGS; assay: Increase in CHOP protein expression in human AGS cells incubated for 24 hrs by Western blotting method; format: functional, cell-based
[8] = tested on: AGS; assay: Inhibition of TRAIL-resistance in human AGS cells assessed as inhibition of cell viability at 16 uM incubated for 24 hrs in presence of 100 ng/ml TRAIL by FMCA method relative to TRAIL alone; format: functional
[9] = tested on: AGS; assay: Increase in cleaved caspase-8 protein expression in human AGS cells at 16 uM incubated for 24 hrs in presence of 100 ng/ml TRAIL by Western blotting method; format: functional
[10] = tested on: AGS; assay: Increase in cleaved caspase-8 protein expression in human AGS cells at 16 uM incubated for 24 hrs in presence of 100 ng/ml TRAIL by Western blotting method relative to TRAIL alone; format: functional
[11] = tested on: AGS; assay: Increase in cleaved caspase-8 protein expression in human AGS cells incubated for 24 hrs by Western blotting method; format: functional, cell-based
[12] = tested on: AGS; assay: Increase in p53 protein expression in human AGS cells incubated for 24 hrs by Western blotting method; format: functional, cell-based
[13] = tested on: AGS; assay: Inhibition of TRAIL-resistance in human AGS cells assessed as inhibition of cell viability at 8 uM incubated for 24 hrs in presence of 100 ng/ml TRAIL by FMCA method relative to TRAIL alone; format: functional
[14] = tested on: AGS; assay: Increase in DR4 protein expression in human AGS cells incubated for 24 hrs by Western blotting method; format: functional, cell-based
[15] = tested on: AGS; assay: Increase in Bax protein expression in human AGS cells at incubated for 24 hrs by Western blotting method; format: functional, cell-based
[16] = tested on: AGS; assay: Increase in DR5 protein expression in human AGS cells incubated for 24 hrs by Western blotting method; format: functional, cell-based
[17] = tested on: AGS; assay: Increase in cleaved caspase-9 protein expression in human AGS cells at 16 uM incubated for 24 hrs by Western blotting method; format: functional
[18] = tested on: AGS; assay: Increase in cleaved caspase-9 protein expression in human AGS cells at 16 uM incubated for 24 hrs in presence of 100 ng/ml TRAIL by Western blotting method; format: functional
[19] = tested on: AGS; assay: Increase in cleaved caspase-9 protein expression in human AGS cells at 16 uM incubated for 24 hrs in presence of 100 ng/ml TRAIL by Western blotting method relative to TRAIL alone; format: functional
[20] = tested on: AGS; assay: Increase in cleaved caspase-3 protein expression in human AGS cells at 16 uM incubated for 24 hrs in presence of 100 ng/ml TRAIL by Western blotting method relative to TRAIL alone; format: functional
[21] = tested on: AGS; assay: Increase in cleaved caspase-3 protein expression in human AGS cells at 16 uM incubated for 24 hrs in presence of 100 ng/ml TRAIL by Western blotting method; format: functional
[22] = tested on: AGS; assay: Increase in cleaved caspase-3 protein expression in human AGS cells at 16 uM incubated for 24 hrs by Western blotting method; format: functional
[23] = tested on: AGS; assay: Increase in caspase-3 protein expression in human AGS cells incubated for 24 hrs by Western blotting method; format: functional, cell-based
[24] = tested on: AGS; assay: Inhibition of TRAIL-resistance in human AGS cells assessed as inhibition of cell viability at 24 uM incubated for 24 hrs in presence of 100 ng/ml TRAIL by FMCA method relative to TRAIL alone; format: functional
[25] = tested on: AGS; assay: Increase in cleaved caspase-9 protein expression in human AGS cells at 8 uM incubated for 24 hrs in presence of 100 ng/ml TRAIL by Western blotting method; format: functional
[26] = tested on: AGS; assay: Increase in cleaved caspase-8 protein expression in human AGS cells at 8 uM incubated for 24 hrs in presence of 100 ng/ml TRAIL by Western blotting method relative to TRAIL alone; format: functional
[27] = tested on: AGS; assay: Increase in caspase-3 protein expression in human AGS cells at 8 uM incubated for 24 hrs by Western blotting method; format: functional
[28] = tested on: AGS; assay: Increase in DR5 protein expression in human AGS cells at 8 uM incubated for 3 to 12 hrs by Western blotting method; format: functional, cell-based; conditions: TDE = time-dependent effect
[29] = tested on: DLD-1; assay: Inhibition of TRAIL-resistance in human DLD1 cells assessed as inhibition of cell viability at 4 to 12 uM incubated for 24 hrs in presence of 100 ng/ml TRAIL by FMCA method relative to TRAIL alone; format: functional, cell-based
[30] = tested on: HeLa; assay: Inhibition of TRAIL-resistance in human HeLa cells assessed as inhibition of cell viability at 4 to 12 uM incubated for 24 hrs in presence of 100 ng/ml TRAIL by FMCA method relative to TRAIL alone; format: functional, cell-based
[31] = tested on: AGS; assay: Increase in cleaved caspase-8 protein expression in human AGS cells at 8 uM incubated for 24 hrs by Western blotting method; format: functional
[32] = tested on: HEK293; assay: Inhibition of TRAIL-resistance in HEK293 cells assessed as inhibition of cell viability at 4 to 8 uM incubated for 24 hrs in presence of 100 ng/ml TRAIL by FMCA method relative to TRAIL alone; format: cell-based; conditions: human, hek293, 24 h
[33] = tested on: AGS; assay: Increase in cleaved caspase-9 protein expression in human AGS cells at 8 uM incubated for 24 hrs in presence of 100 ng/ml TRAIL by Western blotting method relative to TRAIL alone; format: functional
[34] = tested on: AGS; assay: Increase in cleaved caspase-9 protein expression in human AGS cells at 8 uM incubated for 24 hrs by Western blotting method; format: functional
[35] = tested on: AGS; assay: Increase in DR4 protein expression in human AGS cells at 8 uM incubated for 3 to 12 hrs by Western blotting method; format: functional, cell-based; conditions: TDE = time-dependent effect
[36] = tested on: DU-145; assay: Inhibition of TRAIL-resistance in human DU145 cells assessed as inhibition of cell viability at 4 to 12 uM incubated for 24 hrs in presence of 100 ng/ml TRAIL by FMCA method relative to TRAIL alone; format: functional, cell-based
[37] = tested on: AGS; assay: Increase in cleaved caspase-8 protein expression in human AGS cells at 8 uM incubated for 24 hrs in presence of 100 ng/ml TRAIL by Western blotting method; format: functional
[38] = tested on: AGS; assay: Increase in caspase-3 protein expression in human AGS cells at 8 uM incubated for 24 hrs in presence of 100 ng/ml TRAIL by Western blotting method relative to TRAIL alone; format: functional
[39] = tested on: AGS; assay: Increase in caspase-3 protein expression in human AGS cells at 8 uM incubated for 24 hrs in presence of 100 ng/ml TRAIL by Western blotting method; format: functional
[40] = tested on: MCF7; assay: Inhibition of TRAIL-resistance in human MCF7 cells assessed as inhibition of cell viability at 4 to 12 uM incubated for 24 hrs in presence of 100 ng/ml TRAIL by FMCA method relative to TRAIL alone; format: functional, cell-based
[41] = tested on: AGS; assay: Inhibition of TRAIL-resistance in human AGS cells assessed as inhibition of cell viability at 12 uM incubated for 24 hrs in presence of 100 ng/ml TRAIL by FMCA method relative to TRAIL alone; format: functional
[42] = tested on: AGS; assay: Inhibition of TRAIL-resistance in human AGS cells assessed as inhibition of cell viability at 4 uM incubated for 24 hrs in presence of 100 ng/ml TRAIL by FMCA method relative to TRAIL alone; format: functional

Row | SMILES | inhibition (INH) [1] [%] | inhibition (INH) [2] [%] | inhibition (INH) [3] [%] | Activity [4] | Activity [5] | Activity [7] | inhibition (INH) [8] [%] | Activity [11] | Activity [12] | inhibition (INH) [13] [%] | Activity [14] | Activity [15] | Activity [16] | Activity [23] | inhibition (INH) [24] [%] | other results
1 | CC(O)CCC1=CC[C@H]2[C@H](C[C@@H]1C)OC(=O)[C@H]2C (stereo partly drawn) | 51 | 30 | 34 |  |  |  |  |  |  |  |  |  |  |  |  | 
2 | COc1ccc(C(=O)O[C@@H]2C=C(C)CC[C@@]3(O)[C@@H](C(C)C)CC[C@]23C)cc1 |  |  |  | Dose-dependent effect | Dose-dependent effect | Dose-dependent effect | 61 | Dose-dependent effect | Dose-dependent effect | 15 | Dose-dependent effect | Dose-dependent effect | Dose-dependent effect | Dose-dependent effect | 56 | Activity [6]: 10%; Activity [9]: 100%; Activity [10]: 50%; Activity [17]: 15%; Activity [18]: 100%; Activity [19]: 20%; Activity [20]: 70%; Activity [21]: 100%; Activity [22]: 5%
3 | C=C1C(=O)O[C@H]2C[C@H](C)C(CCC(C)O)=CC[C@H]12 (stereo partly drawn) |  |  |  |  |  |  | 48 |  |  | 23 |  |  |  |  | 35 | 
4 | CC(=O)CCC1=CC[C@H]2[C@H](C[C@@H]1C)OC(=O)[C@H]2C | 61 | 19 | 36 |  |  |  |  |  |  |  |  |  |  |  |  | 
5 | C=C1C(=O)O[C@H]2C[C@H](C)C(CCC(C)=O)=CC[C@H]12 |  |  |  | Dose-dependent effect | Dose-dependent effect | Dose-dependent effect |  | Dose-dependent effect | Dose-dependent effect | 44 | Dose-dependent effect | Dose-dependent effect | Dose-dependent effect | Dose-dependent effect |  | Activity [25]: 100%; Activity [26]: 20%; Activity [27]: 25%; Activity [28]: tde; inhibition [29]: Active; inhibition [30]: Active; Activity [31]: 10%; Activity [32]: Non-toxic; Activity [33]: 20%; Activity [34]: 20%; Activity [35]: tde; inhibition [36]: Active; Activity [37]: 100%; Activity [38]: 65%; Activity [39]: 100%; inhibition [40]: Active; inhibition (INH) [41]: 24%; inhibition (INH) [42]: 32%
